Earlier results on 1 compound are cited in patent publication US9848955B2, “Resorbable pouches for implantable medical devices” (TYRX Inc., priority 2006, dated 2017).

Molecules are shown by their SMILES.

The data set deals with myofibroblast formation. Conditions: animal studies of capsular contracture with breast implants [Ajmal et al. (2003)].

With `O=S(=O)([O-])CCS.[Na+]` [Mesna, sodium 2-mercaptoethane sulfonate], the myofibroblast formation result was “diminish myofibroblast formation”.
